{"source": "patent US20220226282A1", "about": "(priority 2021, published 2022)", "key": {"[1]": {"biological_target": "T1, BoNT/A LC (Clostridium botulinum, UniProt P0DPI0)", "T1 sequence (P0DPI0 2-448 limits assumed)": "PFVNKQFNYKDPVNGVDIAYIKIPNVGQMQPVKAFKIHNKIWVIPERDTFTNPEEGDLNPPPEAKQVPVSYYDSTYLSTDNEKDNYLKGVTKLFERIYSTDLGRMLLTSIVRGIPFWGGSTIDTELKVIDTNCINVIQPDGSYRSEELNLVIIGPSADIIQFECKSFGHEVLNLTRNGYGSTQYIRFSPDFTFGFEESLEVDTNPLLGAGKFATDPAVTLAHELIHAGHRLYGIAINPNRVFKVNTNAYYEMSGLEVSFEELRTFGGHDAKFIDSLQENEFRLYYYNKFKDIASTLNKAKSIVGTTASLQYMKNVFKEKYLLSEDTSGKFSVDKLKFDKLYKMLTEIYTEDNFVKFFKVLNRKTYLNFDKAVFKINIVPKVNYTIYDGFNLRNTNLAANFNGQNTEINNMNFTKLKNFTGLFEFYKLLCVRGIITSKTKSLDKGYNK", "experiment": "biochemical", "format": "binding, C. botulinum"}, "[2]": {"test_system": "BoNT"}, "[3]": {"biological_target": "T1, BoNT/A LC", "experiment": "biochemical", "format": "biochemical, C. botulinum"}, "[4]": {"biological_target": "T1, BoNT/A LC", "experiment": "biochemical", "format": "binding, C. botulinum", "remark": "listed apart in the source"}, "[5]": {"biological_target": "T1, BoNT/A LC", "experiment": "biochemical", "design": "species or system C. botulinum", "settings": "read-out: % inhibition of the LCA endopeptidase activity"}}, "note": "“And” between values parts separate entries of the source, which are not always exact repeats. Equal entries are not always repeated. Where two headings read alike, the source gives them in different places.", "data": [{"smiles": "O=c1ccc2cc3c(-c4ccc([N+](=O)[O-])cc4)coc3cc2o1", "note": "[Compound 1, 3-(4-nitrophenyl)-7H-furo[3,2-g]chromen-7-one]", "values": [{"measurement": "corrected intensity of Trp fluorescence signal at λmax of BoNT/A LC (signal reduced to)", "setting": "[1]", "value": "88% and 84% and 73% and 59%"}, {"measurement": "n (number of binding sites)", "setting": "[1]", "value": 0.90}, {"measurement": "ΔH", "setting": "[1]", "value": -16.9, "unit": "kcal/mol"}, {"measurement": "ΔS", "setting": "[1]", "value": "−0.15", "unit": "kJ · mol^−1 K^−1"}, {"measurement": "Kd", "setting": "[1]; Ka (binding constant)", "value": "38 µM and 115 µM"}, {"measurement": "antidote activity against paralytic actions of BoNT", "setting": "[2]", "value": "efficient antidote with the ability to mitigate the paralytic actions of BoNT"}, {"measurement": "Vmax", "setting": "[3]", "value": "2.13 ± 0.5 RFU/s and 2.09 ± 0.2 RFU/s and 1.56 ± 1.1 RFU/s"}, {"measurement": "type of inhibition", "setting": "[3]", "value": "mixed (non-competitive) type of inhibition"}, {"measurement": "Ki", "setting": "[3]; Ki", "value": "5.8 ± 0.7", "unit": "µM"}, {"measurement": "Ki", "setting": "[3]; Ki′", "value": "11.5 ± 2.9", "unit": "µM"}, {"measurement": "Ka (association constant)", "setting": "[4]", "value": 760900, "unit": "M⁻¹"}, {"measurement": "Kd", "setting": "[4]", "value": 1.31, "unit": "µM"}, {"measurement": "N (number of binding sites, binding stoichiometry)", "setting": "[4]", "value": "2.8 and 2.760"}, {"measurement": "ΔH (change in enthalpy)", "setting": "[4]", "value": -2.39, "unit": "kcal/mol"}, {"measurement": "ΔS (change in entropy)", "setting": "[4]", "value": 79.05, "unit": "J/mol · K"}, {"measurement": "inhibition at 81 µM", "setting": "[5]", "value": "~100", "unit": "%"}]}]}
